In publication PMC3827198, “Characterisation of AmphiAmR11, an Amphioxus (Branchiostoma floridae) D2-Dopamine-Like G Protein-Coupled Receptor” (PLoS ONE, 2013):
Where a name gives a salt, the structure may show the parent alone.

How the values were obtained:
[1] = tested on: CHO cell cyclic AMP; assay: CHO cell cyclic AMP level after forskolin; format: cell-based, Chinese hamster; conditions: 10 µM forskolin; basal 5.1 ± 1.7
Experimental: cAMP levels in stably transfected CHO-K1 cells were determined as described previously, except 100 µM isobutylmethylxanthine (IBMX) was used. cAMP levels are represented as a percentage of basal samples unless otherwise stated. Student’s T-test (two-tailed and unpaired) was used to test for significance. Unless otherwise stated, all data are shown as mean ± SEM. Each data point plotted was the mean of data obtained from at least three experiments. Within each experiment three separate replicate wells were analysed for each condition and the cAMP assays on each of the wells was carried out in duplicate.
Forskolin was used both to increase basal cAMP levels to make it easier to detect increases and decreases in cAMP levels in the same experiments and also to potentiate responses to agonists to more accurately determine their threshold effects [see 22]. A non-saturating 10 µM concentration of forskolin was used. Basal levels of CHO cell cyclic AMP were 5.1 ± 1.7 pmoles / mg protein (n = 3) and these were raised to 1053.7 ± 4.8 pmoles / mg protein after exposure to 10 µM forskolin. Protein levels were determined using a Bradford assay.

[2] = target: T1, AmphiAmR11 (Branchiostoma floridae, UniProt A0PF35); assay: Block of tyramine-induced inhibition of forskolin-stimulated cAMP levels in AmphiAmR11-expressing CHO-K1 cells; format: cell-based; conditions: 1 μM antagonist, 30 nM tyramine, 10 µM forskolin
[3] = tested on: OctβRs, CG6989, CG6919 and CG7078; design: method as in PMID 15998303; conditions: cited from earlier work
[4] = tested on: AmphiAmR4; design: method as in PMID 23183848; conditions: cited from earlier work
[5] = target: T1, AmphiAmR11; assay: Block of dopamine-induced ERK1/2 activation in AmphiAmR11-expressing CHO-K1 cells by antagonists; format: cell-based; conditions: 1 µM antagonist, 10 nM dopamine, 5 min
[6] = target: T1, AmphiAmR11; assay: ERK1/2 phosphorylation in AmphiAmR11-expressing CHO-K1 cells (Western blotting); format: cell-based; conditions: 1 μM antagonist

T1 sequence (A0PF35 entry or part of it): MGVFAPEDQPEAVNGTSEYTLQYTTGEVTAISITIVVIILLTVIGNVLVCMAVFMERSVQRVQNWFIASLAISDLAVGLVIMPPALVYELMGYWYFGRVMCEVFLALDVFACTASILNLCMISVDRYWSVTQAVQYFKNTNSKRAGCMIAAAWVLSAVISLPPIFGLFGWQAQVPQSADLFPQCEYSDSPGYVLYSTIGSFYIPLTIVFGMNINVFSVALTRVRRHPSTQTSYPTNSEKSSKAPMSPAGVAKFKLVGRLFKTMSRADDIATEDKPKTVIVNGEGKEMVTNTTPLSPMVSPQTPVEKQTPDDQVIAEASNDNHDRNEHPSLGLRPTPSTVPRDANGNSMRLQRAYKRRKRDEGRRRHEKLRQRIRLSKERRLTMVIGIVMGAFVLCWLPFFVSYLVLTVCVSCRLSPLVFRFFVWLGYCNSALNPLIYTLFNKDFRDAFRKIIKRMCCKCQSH

| Block of tyramine-induced inhibition of forskolin-stimulated cAMP levels [2] | Block of dopamine-induced ERK1/2 activation [5] | Effect of antagonist on ERK1/2 phosphorylation in the absence of dopamine [6] | Structure (SMILES) | CHO cell cyclic AMP level after exposure to forskolin [1] [pmoles / mg protein] | Agonist properties at Drosophila OctβRs [3] | Agonist activity at AmphiAmR4 [4] |
| --- | --- | --- | --- | --- | --- | --- |
|  |  |  | C=C[C@@]1(C)CC(=O)[C@]2(O)[C@@]3(C)[C@@H](O)CCC(C)(C)[C@@H]3[C@H](O)[C@H](OC(C)=O)[C@@]2(C)O1 [forskolin, Forskolin] | 1053.7 ± 4.8 |  |  |
| fully block | fully block | did not exhibit any agonistic properties | Cc1ccc(N(CC2=NCCN2)c2cccc(O)c2)cc1 [phentolamine, phentolamine hydrochloride] |  | agonist properties | agonist properties |
